Data as given in patent US20080248008A1, “Inhibitors of Protein Kinase a Anchoring” (priority 2004, published 2008).

Assays:
[1] = tested on: StAR; test: StAR protein level in Y1 adrenal cells (immunoblot densitometry); type: cell-based, mouse
Description: Progesterone production and StAR protein level. Y1 cells were cultured overnight in 6-well plates at the density of 1.5×10^6 cells per well. To increase the basal level of StAR, the cells were pre-stimulated with 10 μM forskolin for 1 hour, washed twice with medium, before peptide loading. Thereafter, the cells were loaded with 50 μM of the arginine-coupled peptide for 5 hours before being treated with 5 μg/ml Actinomyocin D (Cat. No. A-9415, Sigma) for 30 min and stimulated with 10 μM forskolin (Cat. No. 344270, Calbiochem) or 10 IU/ml ACTH (Cat. No. A-6303, Sigma) for 12 hours. Media from cultures with different treatments were collected and diluted with plain medium to fall into the standard curves for the assay. Progesterone in the cell medium was measured by using either Spectria Progesterone RIA (Cat. No. 68521, Orion Diagnostica, Espoo, Finland) or DELFIA progesterone kit (Cat. No. A066-101, PerkinElmer) following the conditions recommended by the manufacture. The cells were lysed and the StAR protein was analysed by western blotting and the level measured by densiometric analysis.
StAR protein levels in the samples from Example 28 were analysed by immunoblotting. StAR consists of a 37-kDa precursor form containing an N-terminal mitochondrial targeting sequence and a processed 30-kDa mature protein (Epstein and Ormejohnson, 1991; Stocco and Sodeman, 1991). Y1 adrenal cells expressed a low basal level of StAR (FIG. 27, upper panel, lane 1). Upon forskolin stimulation, a significant increase in mature StAR protein (lane 2) occurred consistent with an increase in cholesterol transport over the mitochondrial membrane and a corresponding increase in steroid biosynthesis (bar diagram in FIG. 26). The forskolin-stimulated levels of StAR protein were reduced by 60% in MEME3-Arg11 treated cells (lane 5 and lower panel). In contrast, treatment with SM3-Arg11 reduced StAR levels by […] (lane 8, and lower panel). Thus, MEME3-Arg11 reduced StAR levels by […] as SM3-Arg11. […]

[2] = target: T1, Human RIα (Homo sapiens, UniProt P10644); test: R-overlay with human RIα; type: binding; settings: equal amounts of human or bovine RIα, n=3
T1 construct: made in house; host or cells: E. coli BL21 (B121 [sic])
T1 sequence (P10644 whole entry): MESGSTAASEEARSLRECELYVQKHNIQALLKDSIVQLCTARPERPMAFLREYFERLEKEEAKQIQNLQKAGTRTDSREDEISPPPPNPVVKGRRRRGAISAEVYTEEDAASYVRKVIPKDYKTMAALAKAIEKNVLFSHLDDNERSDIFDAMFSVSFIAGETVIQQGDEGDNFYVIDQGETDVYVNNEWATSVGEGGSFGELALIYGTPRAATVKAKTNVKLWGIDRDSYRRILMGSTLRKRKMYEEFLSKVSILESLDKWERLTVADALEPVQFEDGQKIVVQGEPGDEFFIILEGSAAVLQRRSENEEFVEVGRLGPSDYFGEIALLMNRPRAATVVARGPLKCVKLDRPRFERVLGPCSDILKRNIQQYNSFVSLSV
Description: R-overlay. R-overlays were conducted as described, using ^32P-labeled recombinant murine RII (Hausken, Z. E., et al., 1998 in Protein Targeting Protocols, ed. Clegg, R. A. (Humana, Totowa, N.J.), Vol. 88, pp. 47-64) or recombinant bovine RI (A98S) or by cold RI-overlay where bound RIα was detected by Western blot. Cold RI-overlay was performed by incubating the membranes with 250 nM RI overnight at 4° C., then the membranes were washed five times in TBST for 5 min. Detection of RI was performed using an anti-RI rabbit polyclonal antibody (Santa Cruz) at a concentration of 0.2 μg/μl for 1 hour at 4° C. Then the membranes were washed five times for 5 minutes in PBS followed by incubation with HRP-conjugated anti-rabbit IgGs (1:5000) for 1 hour at 4° C. The membranes were washed in PBS as described above before detection by Supersignal West Dura Extended Duration Substrate (Pierce).
The MEME3 sequence was synthesized on a membrane and RIα binding analysed by R-overlay using equal amounts of either human or bovine RIα (FIG. 3C).

[3] = target: T2, RI (Homo sapiens, UniProt P10644); test: Co-immunoprecipitation with RI in transfected HEK293 cells; type: cell-based; settings: HEK293 cells transfected with GFP-fusion constructs
T2 construct: endogenous in cells; host or cells: HEK293 (transfected only with GFP-peptide constructs)
Description: HEK293 cells at […] were transfected with ten μg of plasmid DNA (GFP, GFP-MEME3 or GFP-Scrambled MEME3) by using the CaCl2 method. Cells were lysed after 30 hours in lysis buffer (20 mM Hepes, pH 7.5/150 mM NaCl/1 mM EDTA/1% Triton X-100) with protease inhibitors (Complete Mini, EDTA-free tablets, Roche).
Immunoblot analysis. Immunocomplexes and lipid raft fractions were analysed on a 10, 15% or 4-20% PAGE and blotted onto PVDF membranes. The filters were blocked in 5% non-fat dry milk in TBST for 30 minutes at RT, incubated 1 hour at RT (or overnight at 4° C.) with primary antibodies, washed four times 5 minutes in TBST with 0.1% Tween-20 and incubated with a horseradish-peroxidase-conjugated secondary antibody. Blots were developed by using Supersignal West Dura Extended Duration Substrate or Supersignal West Pico substrate (Pierce).
Antibodies. RI or RII were immunoprecipitated with polyclonal antibodies against human RI or human RII at a 3 μg/ml dilution (Santa Cruz Biotechnology). MEME3 or scrambled peptide was immunoprecipitated with 1.5 μl of anti-GFP antiserum (Invitrogen). […]
Immunocomplexes were analysed on 10% PAGE (B and C) or 15% PAGE (D) and subjected to Western blotting using anti-GFP, anti-RI or anti-RII as indicated and blotted onto PVDF membranes. […]

Compound | reduction of StAR levels relative to SM3-Arg11 [1] | reduction of forskolin-stimulated levels of StAR protein ([1]; forskolin) [%] | basal StAR level ([1]; unstimulated) | human RIα binding (R-overlay) [2] | co-precipitation with RI [3]
LEQYANQLADQIIKEATERRRRRRRRRrr [MEME3-Arg11] | twice as much | 60 | somewhat higher basal StAR level |  | 
CC[C@H](C)[C@H](NC(=O)[C@H](CCC(N)=O)NC(=O)[C@H](CC(=O)O)NC(=O)[C@H](C)NC(=O)[C@H](CC(C)C)NC(=O)[C@H](CCC(N)=O)NC(=O)[C@H](CC(N)=O)NC(=O)[C@H](C)NC(=O)[C@H](Cc1ccc(O)cc1)NC(=O)[C@H](CCC(N)=O)NC(=O)[C@H](CCC(=O)O)NC(=O)[C@@H](N)CC(C)C)C(=O)N[C@H](C(=O)N[C@@H](CCCCN)C(=O)N[C@@H](CCC(=O)O)C(=O)N[C@@H](C)C(=O)N[C@H](C(=O)N[C@@H](CCC(=O)O)C(=O)N[C@@H](CCCCNC(=O)c1ccc2c(c1)C(=O)OC21c2ccc(O)cc2Oc2cc(O)ccc21)C(N)=O)[C@@H](C)O)[C@@H](C)CC [MEME3] |  |  |  | bound with similar affinity to MEME3 as did bovine RIα | Co-precipitation of MEME3 with RI
IEKELAQQYQNADAITLE [SM3, scrambled MEME3 negative control peptide, reference compound] |  |  |  | no RIα binding at all | did not co-precipitate with RI
